# Source: patent US20040170622A1, “Methods and compositions for modulating XBP-1 activity” (President and Fellows of Harvard College, priority 2002, published 2004)
# Where a SMILES comes first, the peptide text is derived from it. The star is where a group is joined. Cbz = O=C(OCc1ccccc1)*
# B1: XBP-1s: vector encoding only the spliced form of murine XBP-1, a protein of 371 aa (protein)
# chain: MVVVAAAPSAATAAPKVLLLSGQPASGGRALPLMVPGPRAAGSEASGTPQARKRQRLTHLSPEEKALRRKLKNRVAAQTARDRKKARMSELEQQVVDLEEENHKLQLENQLLREKTHGLVVENQELRTRLGMDTLDPDEVPEVEAKGSGVRLVAGSAESAAGAGPVVTSPEHLPMDSDTVASSDSESDILLGILDKLDPVMFFKCPSPESASLEELPEVYPEGPSSLPASLSLSVGTSSAKLEAINELIRFDHVYTKPLVLEIPSETESQTNVVVKIEEAPLSSSEEDHPEFIVSVKKEPLEDDFIPELGISNLLSSSHCLRPPSCLLDAHSDCGYEGSPSPFSDMSSPLGTDHSWEDTFANELFPQLISV
# B2: dn-XBP: dominant negative XBP-1 containing the N-terminal 188 aa, lacking transactivation domain, retaining leucine zipper (protein)
# chain: MVVVAAAPSAATAAPKVLLLSGQPASGGRALPLMVPGPRAAGSEASGTPQARKRQRLTHLSPEEKALRRKLKNRVAAQTARDRKKARMSELEQQVVDLEEENHKLQLENQLLREKTHGLVVENQELRTRLGMDTLDPDEVPEVEAKGSGVRLVAGSAESAAGAGPVVTSPEHLPMDSDTVASSDSESD
# Key:
# UPR target genes = assay: UPR gene and XBP-1 protein expression in MEF cells (gene array, Northern, Western blot); format: cell-based, mouse; conditions: for induction of ERdj4 (XBP-1-dependent UPR target gene): XBP-1-deficient MEFs; for XBP-1u and XBP-1s protein induction: wt MEFs, 10 μM MG-132 or 10 μg/ml Tm, 6 hours
# Experimental: (A) XBP-1 locus in wild type and XBP-1^−/− MEF cells. Splicing of the mutant XBP-1 mRNA in XBP-1^−/− cells is shown. * represent termination codons. (B) Wild type and XBP-1^−/− MEF cells were untreated or treated with 10 μg/ml Tm for 6 hours. […] (C) Wild type and XBP-1^−/− MEF cells were treated with 10 μM MG-132 or 10 μg/ml Tm for 6 hours. XBP-1u and XBP-1s proteins were detected by Western blot analysis with anti-XBP-1 antibody.
# 293T and MEF cells derived from wild type and XBP-1^−/− embryos were cultured in DMEM supplemented with 10% fetal calf serum (Hyclone Laboratories). MEF-tet-off cells (Clontech) were maintained in the same media with the addition of 100 μg/ml G418 and 1 μg/ml doxycycline. XBP-1s inducible cells were obtained by transfecting MEF-tet-off cells with the TREhyg-XBP-1s plasmid and then selecting in the presence of 400 μg/ml hygromycin B. Several clones were tested for doxycycline-dependent XBP-1s expression, and one was selected for further experiments. MEF-dn-XBP cells were generated by transfecting MEF-tet-off cells with the TREhyg-dn-XBP plasmid. […] ATF6α and β knockdown MEF cells were generated by cotransfecting wild type MEF cells with U6-iATF6α and β and cmv-puromycin or transducing cells with retroviruses containing each RNAi vector.
# Total RNA was isolated from MEF cells with TRIZOL reagent (Invitrogen, Carlsbad, Calif.). cDNA synthesis, hybridization and laser scanning of the array were carried out at the Gene Array Technology Center (Brigham and Women's Hospital, Boston, Mass.) with MG-U74A GeneChips which had 6,000 functionally characterized sequences and 6,000 ESTs from the UniGene database (Affymetrix, Santa Clara, Calif.) as recommended by Affymetrix. Data analysis was performed using Affymetrix GeneChip 3.1 software under default parameter setting.
# Total RNA was prepared by using Trizol reagent, electrophoresed on 1.2% agarose, 6% formaldehyde gels and then transferred onto Genescreen Plus membrane (NEN). ^32P-radiolabeled probes were prepared with the RediPrime II labeling system (Amersham-Pharmacia). Template DNAs for the probes were cut out by using appropriate restriction enzymes from the cDNA-containing plasmid (XBP-1, 15-830 of the murine coding region) or EST clones from ATCC (CHOP, IMAGE:5863055; ERdj4, IMAGE: 1920927; p58^IPK probe A, IMAGE:9001935; p58^IPK probe B, IMAGE:2646147; ATF6α, IMAGE:4503659; MGP, IMAGE:4990627; EDEM, IMAGE:5324660; PDI-P5, IMAGE:2645183; RAMP4, IMAGE:3489738). Grp94 and Grp78 probes were kindly provided by R. J. Kaufman, Univ. of Michigan and the HEDJ probe the kind gift of L. Hendershot, St. Jude Children's Research Hospital, Memphis. Probe hybridization was performed with Ultrahyb buffer as recommended by the manufacturer (Ambion).
# 48 hours after transfection, 293T cells were washed twice with cold PBS and lysed in 1 ml lysis buffer (10 mM Tris pH7.4, 150 mM NaCl, 1% Triton X-100, 1 mM EDTA) containing a protease inhibitor cocktail tablet (Roche). Lysates were precleared by using protein A-agarose beads (Roche) for 1 hour and incubated with agarose conjugated anti-HA antibody (Santa Cruz) for overnight. The agarose beads were washed five times with the lysis buffer and resuspended in SDS-PAGE sample buffer. MEF cells were lysed in RIPA buffer (50 mM Tris pH 7.4, 150 mM NaCl, 1 mM EDTA, 1% Triton X-100, 1% sodium deoxycholate, 0.1% SDS). Lysates and immunoprecipitates were subjected to SDS-PAGE and transferred to Hybond P membrane (Amersham-Pharmacia).
# XBP-1s = assay: UPRE-luciferase reporter in NIH3T3 cells; format: cell-based
# Experimental: (A) Ubiquitination of XBP-1 in HeLa cells were cotransfected with XBP-1u and His-tagged ubiquitin expression plasmids. (B) Degradation rates of XBP-1u and XBP-1s proteins were determined by pulse labeling J558 cells with ^35S Met/Cys for 1 hr and chasing for the indicated times. (C) Effect of XBP-1u on XBP-1s dependent UPRE activation in PI-treated NIH3T3 cells with 8-fold excess of XBP-1u plasmids. Transfected cells were treated with MG-132 for 16 hrs before harvesting for luciferase assays. Values represent fold induction of activity compared to the reporter alone after normalizing to Renilla. (D) Generation and expression of lysine to arginine XBP-1u mutants. Two or three lysine residues in the C-terminus of XBP-1u were replaced by arginine to generate XBP-1uKK (235, 252) and XBP-1uKKK(146, 235, 252) by site-directed mutagenesis. dn-XBP contains the N-terminal 188 aa of XBP-1u. Western blot analysis was performed with NIH3T3 extracts transfected with the indicated plasmids. E) Inhibition of XBP-1 dependent activation of the UPRE reporter in NIH 3T3 cells by XBP-1u lysine to arginine mutants.
# Two or three lysine residues in the C-terminus of XBP-1u were replaced by arginines to generate XBP-1uKK (K235R, K252R) and XBP-1uKKK(K146R, K235R, K252R) by site-directed mutagenesis (Iwakoshi et al.2003 Nature Immunology 4: 321-329). dn-XBP contains the N-terminal 188 aa of XBP-1u. NTH3T3 cells were transfected by using the Lipofectamine2000 reagent as recommended by the manufacturer (Invitrogen, Carlsbad, Calif.) with indicated amount of UPRE (UPR element) reporter (Wang et al. 2000 J Biol Chem 275: 27013-27020) and various effector plasmids. Cells were treated for 16 hours before harvest in certain experiments. Cells were lysed in passive lysis buffer for dual luciferase assays according to the manufacturer's protocol (Promega, Madison, Wis.).
Molecule,induction of ERdj4 (XBP-1-dependent UPR target gene) (UPR target genes),XBP-1u and XBP-1s protein induction (UPR target genes),"genes whose expression increased, of the total pool of 12,000 genes (UPR target genes; wt MEF cells, Tm 6 hours) [%]",UPRE reporter activity (XBP-1s; in the absence of treatment),effect on transactivation of UPRE reporter by XBP-1s (XBP-1s; in the absence of PIs)
CC(C)C[C@@H](C=O)NC(=O)[C@H](CC(C)C)NC(=O)[C@H](CC(C)C)NC(=O)OCc1ccccc1 [MG-132] (Cbz-Leu-Leu-Leu-aldehyde),normal induction of ERdj4,induced both XBP-1u and XBP-1s proteins,,,
tunicamycin [Tm],not induced at all,induced both XBP-1u and XBP-1s proteins,2.8,,
B1,,,,greatly increased reporter activity,
B2,,,,,inhibits XBP-1s -induced transactivation very efficiently
